Test results reported in US6656714B2, “Nucleic acids and proteins of a rat ganglioside GM1-specific α1→2 fucosyltransferase and uses thereof” (Northwest Hospital, priority 1999, dated 2003).

Assays:
[1] = tested on: α1→2FucT; assay: α1→2FucT enzyme activity in liver of AAF-fed rats; type: in vivo; conditions: AAF-fed rat liver sample; none detected in normal liver
[2] = biological target: T1, full length rat hepatoma α1→2FucT (Rattus norvegicus, UniProt Q10984); assay: Enzyme assay of expressed recombinant full length α1→2FucT in homogenates of transfected COS-7 cells, transfer of [14C]fucose to GM1 (TLC); type: biochemical; conditions: for transfer to GM1 in the presence of additive, compared with no detergent or phospholipid: CHAPSO 100 μg, phosphatidylglycerol 250 μg
T1 construct: Full length α1→2FucT cDNA was then cloned into pcDNA 3 vector; expressed in transfected cells; host or cells: COS-7 cells, transient transfection, sonicated homogenate
T1 sequence (Q10984 1-380 isoform Q10984-2): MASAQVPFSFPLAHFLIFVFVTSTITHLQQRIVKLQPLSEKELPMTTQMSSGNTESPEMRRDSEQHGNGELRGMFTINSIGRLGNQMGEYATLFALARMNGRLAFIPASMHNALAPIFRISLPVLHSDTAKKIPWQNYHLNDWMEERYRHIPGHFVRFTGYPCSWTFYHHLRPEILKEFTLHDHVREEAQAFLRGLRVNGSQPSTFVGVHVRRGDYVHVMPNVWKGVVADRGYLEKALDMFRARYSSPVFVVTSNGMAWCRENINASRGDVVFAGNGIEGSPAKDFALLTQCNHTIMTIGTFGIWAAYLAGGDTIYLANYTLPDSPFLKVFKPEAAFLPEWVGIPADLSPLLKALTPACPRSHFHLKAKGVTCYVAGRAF
Source text: Expression of full length α1→2FucT cDNA in transfected cells results in membrane-bound enzyme. COS-7 cells were transiently transfected by the DEAE-dextran method (Ausubel, F. M., et al., Current Protocols in Molecular Biology, Wiley, N.Y.) with either FL-RFT-pcDNA3 or FL-RFT(−)-pcDNA3. Four to five days later, the cells were harvested, sonicated in HEPES, glycerol, DTE buffer and assayed for enzyme activity as described previously (Sherwood, A. L., et al., 1998, Arch. Biochem. Biophys. 355:215-221).

[3] = biological target: T2, catalytic domain of rat hepatoma H35 cell α1→2FucT (Rattus norvegicus, UniProt Q10984); assay: α1→2Fucosyltransferase assay, pPROTA-expressed catalytic domain on IgG-agarose beads, transfer of [14C]fucose to glycolipid acceptors (TLC); type: biochemical; conditions: 30 μg acceptor, 2 h at 37° C., 250 μg phosphatidylglycerol, GDP-[14C]fucose
T2 construct: made in house; host or cells: COS-7 cells (secreted fusion protein, captured on IgG-agarose)
T2 sequence (Q10984 28-380 isoform Q10984-2): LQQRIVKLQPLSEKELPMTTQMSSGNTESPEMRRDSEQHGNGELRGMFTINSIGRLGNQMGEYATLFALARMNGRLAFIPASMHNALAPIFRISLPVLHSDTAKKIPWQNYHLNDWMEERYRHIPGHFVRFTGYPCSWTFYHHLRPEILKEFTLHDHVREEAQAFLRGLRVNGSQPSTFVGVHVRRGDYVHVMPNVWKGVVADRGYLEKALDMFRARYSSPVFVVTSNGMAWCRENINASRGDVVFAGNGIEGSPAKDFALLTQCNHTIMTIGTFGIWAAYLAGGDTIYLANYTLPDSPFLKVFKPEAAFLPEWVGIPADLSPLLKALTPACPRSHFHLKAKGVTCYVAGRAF
Experimental: For example, as illustrated in Section 6.3.2, infra, the activity of α1→2fucosyltransferase coupled to the IgG-binding domain of Protein A can be determined in reaction mixtures containing 2.5 μmol of HEPES buffer, pH7.2, 30 μg of GM1. ganglioside or nLc4, 250 μg phosphatidylglycerol, 1 μmol of MnCl2, 0.5 μmol of CDP-choline, 15 nmol of GDP-[^14C]fucose (15,000 cpm/nmol), and bound to IgG-agarose beads in a total volume of 0.1 ml. The reaction mixtures are incubated for 2 h at 37° C., terminated by the addition of 0.1 ml of CHCl3:CH3OH (2:1), streaked onto 4-cm-wide strips of Whatman 3 paper and developed with water overnight. The papers are dried and the labeled product extracted from the origins with 2- to 5-ml washes of CHCl3:CH3OH:H2O (10:5:1). The combined eluates are concentrated to dryness by an N2 stream and dissolved in 20 μl of CHCl3:CH3OH (2:1). A 10-μl aliquot of each is spotted onto a HP-TLC plate (Merck)and developed in a solvent system composed of CHCl3:CH3OH:H2O (60:40:9), 0.02% CaCl2.2H2O. […]
α1→2Fucosyltransferase activity was determined in reaction mixtures containing 2.5 μmol of HEPES buffer, pH7.2, 30 μg of GM1 ganglioside or nLc4, 250 μg phosphatidylglycerol, 1 μmol of MnCl2, 0.5 μmol of CDP-choline, 15 nmol of GDP-[^14C]fucose (15,000 cpm/nmol), and pPROTA-expressed enzyme bound to IgG-agarose beads in a total volume of 0.1 ml. […]

[4] = biological target: T3, recombinant rat α1→2fucosyltransferase (Rattus norvegicus, UniProt Q10984); assay: Preparative in vitro biosynthesis of fucosyl-GM1 with homogenate of COS-7 cells expressing rat α1→2fucosyltransferase (HPTLC); type: biochemical; conditions: 0.5 mg GM1, 2 mg crude cell homogenate, after 24 to 48 hours
T3 construct: Full length α1→2FucT cDNA was then cloned into pcDNA 3 vector; expressed in transfected cells; host or cells: COS-7 cells, transient transfection, sonicated homogenate
T3 sequence (Q10984 1-380 isoform Q10984-2): T1 sequence (Q10984 1-380 isoform Q10984-2)
Experimental: Preparative biosynthesis of fucosyl-GM1 was conducted in reaction mixtures composed of 25 μmol of HEPES buffer, pH 7.2, 10 μmol of MnCl2, 500 μg CHAPSO, 0.5 mg GM1, and 2 mg crude cell homogenate of COS-7 cells transiently transfected with plasmid containing the entire rat α1→2fucosyltransferase coding sequence in a total volume of 0.5 ml. Progress of the reaction was followed with time by withdrawing 2 μl of the reaction mixture and spotting it on an HPTLC plate. The plate was developed in a solvent system composed of CHCL3:CH3OH:H2O, 60:40:9, containing 0.02% CaCl2. Glycolipid bands were determined by orcinol spray (FIG. 9).

transfer of fucose to acceptor [3] | Compound | transfer to GM1 in the presence of additive, compared with no detergent or phospholipid [2] | also measured
– | CC(=O)Nc1ccc2c(c1)Cc1ccccc1-2 [AAF, N-2-acetylaminofluorene] | – | α1→2FucT enzyme activity in liver [1]: moderate level
– | C[C@H](CCC(=O)NCCC[N+](C)(C)CC(O)CS(=O)(=O)[O-])[C@H]1CC[C@H]2[C@@H]3[C@H](O)C[C@@H]4C[C@H](O)CC[C@]4(C)[C@H]3C[C@H](O)[C@]12C (stereo partly shown) [CHAPSO] | Comparable transfer | –
transfer fucose to GM1 | II^3NeuAcGg4 [GM1] | – | transfer of fucose to GM1 by full length enzyme ([2]; two hours at 37° C.): transfers fucose to GM1 with high efficiency; conversion of GM1 to fucosyl-GM1 [4]: almost complete conversion
No detectable transfer | lactoneotetraosylceramide [nLcOse4Cer] | – | –
– | phosphatidylglycerol | Somewhat less transfer | –
